Test results published in US20240350448A1, “DICHLOROACETIC ACID CONJUGATING DIPHENYL ETHANE COMPOUND, AND PREPARATION METHOD AND APPLICATION THEREOF” (SHANGHAI ECUSTBIOMEDICINECOMPANY LTD., priority 2021, published 2024).
Where two headings read alike, the source gives them in different places. Values belong to the molecule of their own block, whether it stands above or below them.

Assays:
[1] = test system: HepG2 cell strain; assay: In-vitro inhibitory activity against proliferation of tumor cells (CCK8, inhibition rate); format: cell-based, human; conditions: for inhibition at 1 µM / inhibition at 10 µM / inhibition at 0.1 µM: Homo sapiens, 72 hours
Experimental: (§1) Take cells in logarithmic growth phase for experiments. Digest and count the cells, then make them into a cell suspension in 1×10^5 cells/mL, next seed the cell suspension in a 96-hole plate (100 μL per hole), then place the plate in a 5% CO2 incubator at 37° C. to be incubated for 24 hours. Add a subject with a corresponding concentration into each hole, and concurrently set up a negative control group and a blank group, each of which has 3 holes. After having placed the plate in the incubator for 72 hours, observe the morphologies of cells in each group under a microscope, then add a 10 μL CCK8 solution to each hole, and continue incubating the cells in the incubator for 4 h. Measure the absorbance value at 450 nm, and calculate the inhibition rate of cell proliferation; if P<0.05, the results have statistical significance.

[2] = test system: MCF-7; assay: CCK-8 anti-tumor activity, IC50; format: cell-based, human; conditions: for IC50: Homo sapiens, MCF7, MCF-7, 72 hours
Experimental: as §1, with “hours, measure” for “h. Measure”, “nm. In the test, take cells with 8 concentration gradients respectively, then measure” for “nm, and calculate”, “corresponding to each concentration. Use the GraphPad Prism 5.0 statistical software to treat data, use the t-test software to make a comparison between two groups, and use the One-way Anova (Dunnett) software to make a comparison among multiple groups.” for “of cell proliferation;”, “significance, and then calculate the IC50 value.” for “significance.”

[3] = test system: SGC7901; assay: CCK-8 anti-tumor activity, IC50; format: cell-based, human; conditions: for IC50: Homo sapiens, SGC-7901, SGC7901, 72 hours
Experimental: as §1, with “hours, measure” for “h. Measure”, “nm. In the test, take cells with 8 concentration gradients respectively, then measure” for “nm, and calculate”, “corresponding to each concentration. Use the GraphPad Prism 5.0 statistical software to treat data, use the t-test software to make a comparison between two groups, and use the One-way Anova (Dunnett) software to make a comparison among multiple groups.” for “of cell proliferation;”, “significance, and then calculate the IC50 value.” for “significance.”

[4] = test system: A549; assay: CCK-8 anti-tumor activity, IC50; format: cell-based; conditions: Homo sapiens, 72 hours
Experimental: as §1, with “hours, measure” for “h. Measure”, “nm. In the test, take cells with 8 concentration gradients respectively, then measure” for “nm, and calculate”, “corresponding to each concentration. Use the GraphPad Prism 5.0 statistical software to treat data, use the t-test software to make a comparison between two groups, and use the One-way Anova (Dunnett) software to make a comparison among multiple groups.” for “of cell proliferation;”, “significance, and then calculate the IC50 value.” for “significance.”

[5] = test system: Hela; assay: CCK-8 anti-tumor activity, IC50; format: cell-based; conditions: Homo sapiens
Experimental: as §1, with “hours, measure” for “h. Measure”, “nm. In the test, take cells with 8 concentration gradients respectively, then measure” for “nm, and calculate”, “corresponding to each concentration. Use the GraphPad Prism 5.0 statistical software to treat data, use the t-test software to make a comparison between two groups, and use the One-way Anova (Dunnett) software to make a comparison among multiple groups.” for “of cell proliferation;”, “significance, and then calculate the IC50 value.” for “significance.”

[6] = test system: HepG2; assay: CCK-8 anti-tumor activity, IC50; format: cell-based; conditions: Homo sapiens
Experimental: as §1, with “hours, measure” for “h. Measure”, “nm. In the test, take cells with 8 concentration gradients respectively, then measure” for “nm, and calculate”, “corresponding to each concentration. Use the GraphPad Prism 5.0 statistical software to treat data, use the t-test software to make a comparison between two groups, and use the One-way Anova (Dunnett) software to make a comparison among multiple groups.” for “of cell proliferation;”, “significance, and then calculate the IC50 value.” for “significance.”

[7] = test system: SW480; assay: CCK-8 anti-tumor activity, IC50; format: cell-based; conditions: Homo sapiens, 72 hours
Experimental: as §1, with “hours, measure” for “h. Measure”, “nm. In the test, take cells with 8 concentration gradients respectively, then measure” for “nm, and calculate”, “corresponding to each concentration. Use the GraphPad Prism 5.0 statistical software to treat data, use the t-test software to make a comparison between two groups, and use the One-way Anova (Dunnett) software to make a comparison among multiple groups.” for “of cell proliferation;”, “significance, and then calculate the IC50 value.” for “significance.”

[8] = test system: human hepatoma cell HepG2 xenotransplantation tumor; assay: Gavage administration, inhibition of xenografted tumors of tumor-bearing nude mice; format: in vivo; conditions: 14 times; for Tumor weight: day 15; for Inhibition rate(%): tumor weight vs model group
Description: Inoculate the human hepatoma cell strain HepG2 subcutaneously at an armpit of a nude mouse, as to establish a human hepatoma cell HepG2 xenotransplantation tumor model. Take the cells HepG2 in logarithmic growth phase, under sterile conditions, inoculate the cells subcutaneously at right armpits of 55 nude mice. Measure the diameter of the xenograft tumors by a vernier caliper, when the tumors grow to about 100 mm^3, choose 48 tumor-bearing nude mice having an uniform tumor size in a good growth status, then randomly divide them into 8 groups, each of which has 6 mice, namely a model group, a 7a low-dosage group (50 mg/kg), a 7a medium-dosage group (100 mg/kg), a 7a high-dosage group (150 mg/kg), and a sorafenib group (50 mg/kg). Share an isovolumic solvent among the mice in the model group through gavage, administer drugs through gavage once a day. Administer drugs in the 7a low-dosage group, the 7a medium-dosage group, and the 7a high-dosage group once a day at 50 mg/kg, 100 mg/kg, and 150 mg/kg, respectively, to reach 14 times administration in total. Administer drugs in the sorafenib group once a day at 50 mg/kg, to reach 14 times administration in total. Dynamically observe the anti-tumor effect of the subjects by adopting the method of measuring tumor diameters. Measure the tumor diameter on alternate days, while weigh the body weight of nude mice. On the 15th day, kill the mice, then pick away tumor lumps surgically and weigh them, and preserve the tumor tissue in a liquid nitrogen tank, next calculate the tumor inhibition rate (%). Tumor inhibition rate (%)= (tumor weight in the model group-tumor weight in the administration group)/tumor weight in the model group×100%.

[9] = read-out: IC50 value against the Hela cells

SMILES: COc1ccc(CCc2cc(OC)c(OC)c(OC)c2)cc1OC(=O)C(Cl)Cl [7a, 2-methoxy-5-(3,4,5-trimethoxyphenylethyl) phenyl 2,2-dichloroacetate]
inhibitory activity against HepG2 cells (in words) [1]: good inhibitory activity
inhibition at 1 µM [1]: 94.43 ± 0.89%
inhibition at 10 µM [1]: 89.3 ± 1.5%
IC50 [2]: 656 nM
IC50 [3]: 469 nM
IC50 [4]: 726 nM
IC50 ([5]; 72 hours, read-out: IC50): 516 nM
IC50 [5, 9]: 516 nM
IC50 ([6]; 72 hours, read-out: IC50): 48.9 nM
IC50 ([6]; read-out: IC50 value against the HepG2 cells): 48.9 nM
IC50 [7]: 940 nM
Tumor weight ([8]; 50 mg/kg gavage once a day): 0.569 ± 0.103 g
Inhibition rate(%) ([8]; 50 mg/kg gavage once a day): 62.0%
Tumor weight ([8]; 100 mg/kg gavage once a day): 0.479 ± 0.100 g
Inhibition rate(%) ([8]; 100 mg/kg gavage once a day): 72.4%
Tumor weight ([8]; 150 mg/kg gavage once a day): 0.314 ± 0.076 g
Inhibition rate(%) ([8]; 150 mg/kg gavage once a day): 86.9%

SMILES: CCOc1ccc(CCc2cc(OC)c(OC)c(OC)c2)cc1OC(=O)C(Cl)Cl [7b]
inhibitory activity against HepG2 cells (in words) [1]: better than that of erianin
inhibition at 0.1 µM [1]: 35.7 ± 2.42%
inhibition at 1 µM [1]: 48.4 ± 9.88%
inhibition at 10 µM [1]: 73.7 ± 4.7%

SMILES: COc1ccc(CCc2cc(OC)c(OC)c(OC)c2)cc1OC(=O)CNC(=O)C(Cl)Cl [8a, 2-methoxy-5-(3,4,5-trimethoxyphenylethyl) phenyl3-(2,2-dichloroacetamide) acetate]
inhibition at 0.1 µM [1]: 18.5 ± 1.16%
inhibition at 1 µM [1]: 30 ± 2.03%
inhibition at 10 µM [1]: 45.6 ± 2.53%

SMILES: COc1ccc(CCc2cc(OC)c(OC)c(OC)c2)cc1OC(=O)CCNC(=O)C(Cl)Cl [8b, 2-methoxy-5-(3,4,5-trimethoxyphenyletyl) phenyl3-(2,2-dichloroacetamide) propionate]
inhibition at 0.1 µM [1]: 37.5 ± 4.49%
inhibition at 1 µM [1]: 55.8 ± 4.37%
inhibition at 10 µM [1]: 74.2 ± 2.41%

SMILES: COc1ccc(CCc2cc(OC)c(OC)c(OC)c2)cc1OC(=O)CCCNC(=O)C(Cl)Cl [8c, 2-methoxy-5-(3,4,5-trimethoxyphenylethy) phenyl4-(2,2-dichloroacetamide) butyrate]
inhibition at 0.1 µM [1]: 36.1 ± 11.7%
inhibition at 1 µM [1]: 68.7 ± 0.72%
inhibition at 10 µM [1]: 89.27 ± 0.66%

IC50 [2]: 174 nM
IC50 [3]: 103 nM
IC50 ([5]; 72 hours, read-out: IC50): 288 nM
IC50 [5, 9]: 288 nM
IC50 ([6]; 72 hours, read-out: IC50): 135 nM
IC50 [7]: 326 nM
SMILES: COc1ccc(CCc2cc(OC)c(OC)c(OC)c2)cc1OC(=O)CCCCCNC(=O)C(Cl)Cl [8d, 2-methoxy-5-(3,4,5-trimethoxyphenylethyl) phenyl6-(2,2-dichloroacetamide) hexanoate]
inhibitory activity against HepG2 cells (in words) [1]: good inhibitory activity
inhibition at 0.1 µM [1]: 50.9 ± 4.44%
inhibition at 1 µM [1]: 73 ± 3.1%
inhibition at 10 µM [1]: 90.6 ± 2.33%
inhibitory activity compared with erianin (in words) ([2]; human breast cancer MCF-7 cell strains): superior to erianin
inhibitory activity compared with erianin (in words) ([3]; human gastric cancer SGC7901 cell strains): superior to erianin

SMILES: CNC(=O)c1cc(Oc2ccc(NC(=O)Nc3ccc(Cl)c(C(F)(F)F)c3)cc2)ccn1 [sorafenib, reference compound]
Tumor weight ([8]; 50 mg/kg gavage once a day): 0.581 ± 0.089 g
Inhibition rate(%) ([8]; 50 mg/kg gavage once a day): 59.3%
